Test results taken from the COVID Moonshot data (paper PMC7615835).
Where “and” joins values, the source holds several entries; their conditions need not be identical. Identical values can stand only once.

How the values were obtained:
[1] = mouse; plasma
[2] = not given; remark: listed apart in the source
[3] = in vivo, iv, 0.5 mg/kg
[4] = mouse; liver_microsomes
[5] = not given; remark: listed apart in the source
[6] = target: SARS-CoV-2 Main Protease (SARS-CoV-2) (UniProt P0DTD1)
[7] = pampa
SARS-CoV-2 (SARS-CoV-2) = settings: helaace2
[8] = helaace2

With `O=C(Nc1cncc2ccncc12)[C@H]1CCOc2ccc(Cl)cc21` (stereo in doubt) the logD was 2.59 and 2.5, the fraction unbound [1] was 0.219 and the recovery [1] was 102%. For the same compound, the logD [2] was 2.6, the AUC(0-inf) ([3]; mouse) was 113 ng·h/mL and 122 ng·h/mL and the AUC(0-t) ([3]; mouse) was 112 ng·h/mL and 118 ng·h/mL. For the same compound, the C0 ([3]; mouse) was 525 ng/mL and 604 ng/mL, the MRT inf ([3]; mouse) was 13.7 min and 14.6 min and the MRT last ([3]; mouse) was 13 min. For the same compound, the Vd ([3]; mouse) was 1.01 L/kg and 1 L/kg, the clearance ([3]; mouse) was 73.5 mL/min/kg and 68.7 mL/min/kg and the half-life ([3]; mouse) was 9.48 min and 11.9 min. It also gave a half-life [4] of 7.8 min, a microsomal CLint [4] of 223 µL/min/mg and a CC50 ([5]; a549) greater than 9990 nM.
Work on `CS(=O)(=O)N1Cc2ccc(Cl)cc2[C@H](C(=O)Nc2cncc3ccccc23)C1` (stereo in doubt) yielded a logD [2] of 2.2.
With `CC1Cn2nccc2CN1C(=O)CC1(C(=O)Nc2cncc3ccccc23)CCOc2ccc(Cl)cc21` (centres undefined) the CC50 ([5]; a549) was greater than 9990 nM and the IC50 [6] was 1560 nM and 2850 nM.
With `C=CC(=O)N(C(=O)C1COc2ccc(Cl)cc21)c1cncc2ccccc12` (centres undefined) the Papp [7] was 435 ×10⁻⁶ cm/s.
For `Cc1cccc(/C=N/Nc2cc(N3CCOCC3)nc(OCCc3ccccn3)n2)c1`, the EC50 (SARS-CoV-2 (SARS-CoV-2)) was < 10 nM and 14.7 nM and 22.9 nM and the EC90 (SARS-CoV-2 (SARS-CoV-2)) was 158 nM and 70.8 nM and 82.9 nM.
With `CN1CCN(S(=O)(=O)N2Cc3ccc(Cl)cc3C(C(=O)Nc3cncc4ccccc34)C2)CC1` (centres undefined) the logD [2] was 2.1, the AUC(0-inf) ([3]; rat) was 88 ng·h/mL and 85 ng·h/mL and the AUC(0-t) ([3]; rat) was 84.3 ng·h/mL and 82.4 ng·h/mL. For the same compound, the C0 ([3]; rat) was 211 ng/mL and 112 ng/mL, the MRT inf ([3]; rat) was 56.3 min and 30.7 min and the MRT last ([3]; rat) was 24.9 min and 47.2 min. The Vd ([3]; rat) was 1.6 L/kg and 3.12 L/kg, the clearance ([3]; rat) was 52.1 mL/min/kg and 55.5 mL/min/kg and the half-life ([3]; rat) was 29.6 min and 52.7 min. It also gave an IC50 [6] of 116 nM.
With `CCCc1cc(Cl)cc(CC(=O)Nc2cncc3ccccc23)c1` the CC50 ([5]; a549) was greater than 9990 nM and the IC50 [6] was 2650 nM.
For `O=C(Nc1cncc2ccccc12)C1CN(S(=O)(=O)C2CNC2)Cc2ccc(Cl)cc21` (centres undefined), the logD [2] was 1.4 and the IC50 [6] was 274 nM.
For `COCCS(=O)(=O)N1Cc2ccc(Cl)cc2C(C(=O)Nc2cncc3ccccc23)C1` (centres undefined), the logD [2] was 2.3 and the IC50 [6] was 211 nM and 214 nM.
With `CNC(=O)c1cc2c(NC(=O)C3CCOc4ccc(Cl)cc43)cncc2s1` (centres undefined) the logD [2] was 3, the AUC(0-inf) ([3]; rat) was 267 ng·h/mL and 298 ng·h/mL and the AUC(0-t) ([3]; rat) was 263 ng·h/mL and 291 ng·h/mL. The C0 ([3]; rat) was 712 ng/mL and 752 ng/mL, the MRT inf ([3]; rat) was 55.4 min and 40.1 min and the MRT last ([3]; rat) was 35.8 min and 39.7 min. For the same compound, the Vd ([3]; rat) was 1.45 L/kg and 1.85 L/kg, the clearance ([3]; rat) was 36.2 mL/min/kg and 32.6 mL/min/kg and the half-life ([3]; rat) was 39.1 min and 113 min. For the same compound, the IC50 [6] was 571 nM.
For `O=C(Cc1cccc(Cl)c1)Nc1cncc2cc(F)ccc12`, the CC50 ([5]; a549) was greater than 9990 nM and the IC50 [6] was 1470 nM.
`Cc1ccc(CC(=O)Nc2cncc3ccccc23)cc1Cl` gave a CC50 ([5]; a549) greater than 9990 nM and an IC50 [6] of 1090 nM.
With `CCC(CC)COC(=O)[C@H](C)NP(=O)(OC[C@H]1O[C@@](C#N)(c2ccc3c(N)ncnn23)[C@H](O)[C@@H]1O)Oc1ccccc1` (stereo in doubt) the CC50 [8] was 10800 nM and 27000 nM and 16400 nM.
`CN(C)C(=O)C[C@]1(C(=O)Nc2cncc3ccccc23)CCOc2ccc(Cl)cc21` (stereo in doubt) gave a CC50 ([5]; vero) greater than 9990 nM and an IC50 [6] of 1300 nM.
With `O=C(Nc1cncc2cc(CO)ccc12)C1CCOc2ccc(Cl)cc21` (centres undefined) the logD [2] was 2.2, the AUC(0-inf) ([3]; rat) was 187 ng·h/mL and 325 ng·h/mL and the AUC(0-t) ([3]; rat) was 182 ng·h/mL and 321 ng·h/mL. For the same compound, the C0 ([3]; rat) was 518 ng/mL and 742 ng/mL, the MRT inf ([3]; rat) was 36.2 min and 29.3 min and the MRT last ([3]; rat) was 26 min and 34 min. The Vd ([3]; rat) was 1.31 L/kg and 0.947 L/kg, the clearance ([3]; rat) was 44.6 mL/min/kg and 26.8 mL/min/kg and the half-life ([3]; rat) was 27.7 min. It also gave an IC50 [6] of 1400 nM.
